Where a name gives a salt, the structure may show the parent alone. Read-outs that look alike come from different tables or passages of the source.
Legend:
Huh-7.5/F-Luc cells = conditions: maximum tested dose 5 µM
in vitro [1] = assay: in vitro
SARS-CoV-2 = conditions: Calu-3 cells, immunofluorescence imaging
in vitro [2] = conditions: human
HCoV-229E = assay: microbe, parasite or virus in culture; assay type: cell-based, Homo sapiens sapiens; conditions: Human coronavirus 229E
[3] = Anti-SARS-CoV-2 screening on Calu-3 cells: viability [% of control], Calu-3 cells
[4] = Huh7.5, read-out: IC50 (µM), HCoV 229E

Cn1cc(C2=C(c3c4n(c5ccccc35)CCC(CN)C4)C(=O)NC2=O)c2ccccc21 (stereo not shown) [RFM-009-039-1]
CC50 (µM) (Huh-7.5/F-Luc cells; Huh-7.5/F-Luc cells): greater than maximum tested dose
viability (in vitro [1]; [3]): 95.9%
Anti-SARS-CoV-2 screening on Calu-3 cells: intracellular SARS-CoV-2 infection measured via immunofluorescence imaging [% of control] (SARS-CoV-2): 111.69 % of control
viability at 5 µM (in vitro [2]): 154%
IC50 (HCoV-229E; [4]): 1.73 µM

OCCN1CCN(CCCN2c3ccccc3Sc3ccc(C(F)(F)F)cc32)CC1 [RFM-001-668-2]
CC50 (µM) (Huh-7.5/F-Luc cells; Huh-7.5/F-Luc cells): greater than maximum tested dose
viability (in vitro [1]; [3]): 99%
Anti-SARS-CoV-2 screening on Calu-3 cells: intracellular SARS-CoV-2 infection measured via immunofluorescence imaging [% of control] (SARS-CoV-2): 116.92 % of control
viability at 5 µM (in vitro [2]): 154%

CC(C)Oc1ccc(-c2nc(-c3cccc4c3CC[C@@H]4NCCO)no2)cc1C#N [CBR-001-211-015-5]
CC50 (µM) (Huh-7.5/F-Luc cells; Huh-7.5/F-Luc cells): greater than maximum tested dose
viability at 5 µM (in vitro [2]): 129%
IC50 (HCoV-229E; [4]): 1.17 µM

CCOc1cc2c(c(F)c1OCC)C(=N)N(CC(=O)c1cc(N3CCOCC3)c(OC)c(C(C)(C)C)c1)C2 [atopaxar]
CC50 (µM) (Huh-7.5/F-Luc cells; Huh-7.5 cells, dose series): greater than maximum tested dose
viability (in vitro [1]; [3]): 81.4%
Anti-SARS-CoV-2 screening on Calu-3 cells: intracellular SARS-CoV-2 infection measured via immunofluorescence imaging [% of control] (SARS-CoV-2): 107.54 % of control
IC50 (HCoV-229E; Huh7.5): 0.49 µM

Cc1c(-c2ccc(O)cc2)n(Cc2ccc(OCCN3CCCCCC3)cc2)c2ccc(O)cc12 [RFM-002-868-2]
CC50 (µM) (Huh-7.5/F-Luc cells; Huh-7.5/F-Luc cells): greater than maximum tested dose
viability at 48 h, 5 µM (in vitro [1]; [3]): 96.9%
Anti-SARS-CoV-2 screening on Calu-3 cells: intracellular SARS-CoV-2 infection measured via immunofluorescence imaging [% of control] (SARS-CoV-2): 103.07 % of control
viability at 5 µM (in vitro [2]): 165%

CNCc1ccc(C)c(NC(=O)c2ccc(Nc3nc(-c4ccccc4)c4ccccc4n3)cc2)c1 [XL-139]
CC50 (µM) (Huh-7.5/F-Luc cells; Huh-7.5 cells, dose series): greater than maximum tested dose
viability (in vitro [1]; [3]): 107%
Anti-SARS-CoV-2 screening on Calu-3 cells: intracellular SARS-CoV-2 infection measured via immunofluorescence imaging [% of control] (SARS-CoV-2): 109.44 % of control
IC50 (HCoV-229E; Huh7.5): 0.62 µM

COCC(=O)O[C@]1(CCN(C)CCCc2nc3ccccc3[nH]2)CCc2cc(F)ccc2[C@@H]1C(C)C [mibefradil dihydrochloride]
CC50 (µM) (Huh-7.5/F-Luc cells; Huh-7.5 cells, dose series): greater than maximum tested dose
viability (in vitro [1]; [3]): 98.3%
Anti-SARS-CoV-2 screening on Calu-3 cells: intracellular SARS-CoV-2 infection measured via immunofluorescence imaging [% of control] (SARS-CoV-2): 108.00 % of control
IC50 (HCoV-229E; Huh7.5): 1.03 µM

CCSc1ccc2c(c1)N(CCCN1CCN(C)CC1)c1ccccc1S2 [Thiethylperazine dimaleate]
CC50 (µM) (Huh-7.5/F-Luc cells; Huh-7.5 cells, dose series): greater than maximum tested dose
viability (in vitro [1]; [3]): 95.3%
Anti-SARS-CoV-2 screening on Calu-3 cells: intracellular SARS-CoV-2 infection measured via immunofluorescence imaging [% of control] (SARS-CoV-2): 110.38 % of control
IC50 (HCoV-229E; Huh7.5): 0.93 µM

O=C1NCCN1CCN1CCC(c2cn(-c3ccc(F)cc3)c3ccc(Cl)cc23)CC1 [sertindole]
CC50 (µM) (Huh-7.5/F-Luc cells; Huh-7.5 cells, dose series): greater than maximum tested dose
viability at 48 h, 5 µM (in vitro [1]): 106%
Anti-SARS-CoV-2 screening on Calu-3 cells: intracellular SARS-CoV-2 infection measured via immunofluorescence imaging [% of control] (SARS-CoV-2): 107.90 % of control
IC50 (HCoV-229E; Huh7.5): 0.96 µM

CS[C@H]1SC[C@H]2C(=O)N(C)[C@@H](C(C)C)C(=O)OC[C@@H](NC(=O)c3cnc4ccccc4n3)C(=O)N[C@@H](C)C(=O)N(C)[C@@H]1C(=O)N(C)[C@@H](C(C)C)C(=O)OC[C@@H](NC(=O)c1cnc3ccccc3n1)C(=O)N[C@@H](C)C(=O)N2C [Echinomycin]
CC50 (µM) (Huh-7.5/F-Luc cells; Huh-7.5 cells, dose series): greater than maximum tested dose
viability (in vitro [1]): 95.2%
Anti-SARS-CoV-2 screening on Calu-3 cells: intracellular SARS-CoV-2 infection measured via immunofluorescence imaging [% of control] (SARS-CoV-2): 92.25 % of control
IC50 (HCoV-229E; Huh7.5, read-out: IC50): 0.1 µM

CNCc1ccc(OC)c([C@@]2(N3CCC[C@H]3c3ncco3)C(=O)N(S(=O)(=O)c3ccc(OC)cc3)c3ccc(Cl)cc32)c1 [RFM-011-199-9]
CC50 (µM) (Huh-7.5/F-Luc cells; Huh-7.5 cells, dose series): greater than maximum tested dose
viability (in vitro [1]; [3]): 95.4%
Anti-SARS-CoV-2 screening on Calu-3 cells: intracellular SARS-CoV-2 infection measured via immunofluorescence imaging [% of control] (SARS-CoV-2): 113.08 % of control
IC50 (HCoV-229E; Huh7.5): 0.8 µM

CC(C)(Cc1ccc2ccccc2c1)NC[C@@H](O)COc1cccc(Cl)c1C#N [SB 262470]
CC50 (µM) (Huh-7.5/F-Luc cells; Huh-7.5 cells, dose series): greater than maximum tested dose
viability (in vitro [1]; [3]): 106%
Anti-SARS-CoV-2 screening on Calu-3 cells: intracellular SARS-CoV-2 infection measured via immunofluorescence imaging [% of control] (SARS-CoV-2): 110.66 % of control
IC50 (HCoV-229E; Huh7.5): 0.96 µM

CCNCc1cc(Nc2ccnc3cc(Cl)ccc23)ccc1O [CBR-001-843-604-9]
CC50 (µM) (Huh-7.5/F-Luc cells; Huh-7.5/F-Luc cells): greater than maximum tested dose
viability at 5 µM (in vitro [2]): 131%
IC50 (HCoV-229E; [4]): 1.43 µM

CN1CCC(c2cn(C)c3ccc(OS(=O)(=O)c4c(F)cccc4F)cc23)CC1 [LY-483518]
CC50 (µM) (Huh-7.5/F-Luc cells; Huh-7.5 cells, dose series): greater than maximum tested dose
viability at 48 h, 5 µM (in vitro [1]): 111%
Anti-SARS-CoV-2 screening on Calu-3 cells: intracellular SARS-CoV-2 infection measured via immunofluorescence imaging [% of control] (SARS-CoV-2): 109.16 % of control
IC50 (HCoV-229E; Huh7.5): 1.03 µM
